Experimental findings from the supplement of paper PMC10307832 are described below.

What all share (assay): relative viability (nuclei count vs DMSO), 5 days (fraction); higher = more cells survive
Compound in the test “Vismodegib + Bortezomib”: CS(=O)(=O)c1ccc(C(=O)Nc2ccc(Cl)c(-c3ccccn3)c2)c(Cl)c1 [Vismodegib] + CC(C)C[C@H](NC(=O)[C@H](Cc1ccccc1)NC(=O)c1cnccn1)B(O)O [Bortezomib] (partner 0.002 µM)
The method, boiled down:
(§1)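 Five library-drug doses in √10 steps were combined with a fixed anchor-drug dose, or a single drug was given alone, by pin tool to lung cancer cell lines in 1536-well plates the day after seeding. Nuclei were stained and counted after 5 days. Relative viability is the nuclei count in treated wells over that in vehicle wells, taken as the median of duplicate plates.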

Compound in the test “VE-821 + Vorinostat”: CS(=O)(=O)c1ccc(-c2cnc(N)c(C(=O)Nc3ccccc3)n2)cc1 [VE-821] + O=C(CCCCCCC(=O)Nc1ccccc1)NO [Vorinostat] (partner 1 µM)
The method in brief: as §1

Compound in the test “Vismodegib + Alpelisib”: CS(=O)(=O)c1ccc(C(=O)Nc2ccc(Cl)c(-c3ccccn3)c2)c(Cl)c1 [Vismodegib] + Cc1nc(NC(=O)N2CCC[C@H]2C(N)=O)sc1-c1ccnc(C(C)(C)C(F)(F)F)c1 [Alpelisib] (partner 2 µM)
The method, boiled down:
as §1

Compound in the test “VE-821 + AZD7762”: CS(=O)(=O)c1ccc(-c2cnc(N)c(C(=O)Nc3ccccc3)n2)cc1 [VE-821] + NC(=O)Nc1cc(-c2cccc(F)c2)sc1C(=O)N[C@H]1CCCNC1 [AZD7762] (partner 0.2 µM)
The method, boiled down: as §1

In the case of NCI-H520, the relative viability came to 0.443 with Vismodegib + Bortezomib (first compound 0.08 µM); 0.812 with Vismodegib + Bortezomib (first compound 0.253 µM); 0.619 with Vismodegib + Bortezomib (first compound 0.8 µM); 0.697 in the test with Vismodegib + Bortezomib (first compound 2.53 µM); 0.668 with Vismodegib + Bortezomib (first compound 8 µM); 0.614 with VE-821 + Vorinostat (first compound 0.08 µM). Also, the relative viability with VE-821 + Vorinostat (first compound 0.253 µM) worked out at 0.779; with VE-821 + Vorinostat (first compound 0.8 µM), 0.719; in the test with VE-821 + Vorinostat (first compound 2.53 µM), 0.603; with VE-821 + Vorinostat (first compound 8 µM), 0.353; with Vismodegib + Alpelisib (first compound 0.08 µM) it was 0.917; with Vismodegib + Alpelisib (first compound 0.253 µM) it was 0.938. The relative viability in the test with Vismodegib + Alpelisib (first compound 0.8 µM) was determined as 0.988; with Vismodegib + Alpelisib (first compound 2.53 µM), 0.896; with Vismodegib + Alpelisib (first compound 8 µM), 0.987.

As for NCI-H522, the relative viability with VE-821 + Vorinostat (first compound 0.08 µM) is 1.02; in the test with VE-821 + Vorinostat (first compound 0.253 µM) it was 0.811; in the test with VE-821 + Vorinostat (first compound 0.8 µM), 0.921; in the test with VE-821 + Vorinostat (first compound 2.53 µM) it was 0.994; with VE-821 + Vorinostat (first compound 8 µM), 0.732; with VE-821 + AZD7762 (first compound 0.08 µM), 0.888. Besides, the relative viability with VE-821 + AZD7762 (first compound 0.253 µM) is 0.707; in the test with VE-821 + AZD7762 (first compound 0.8 µM), 0.787; with VE-821 + AZD7762 (first compound 2.53 µM), 0.962; with VE-821 + AZD7762 (first compound 8 µM), 0.767.

As for NCI-H661, the relative viability was 0.821 with Vismodegib + Bortezomib (first compound 0.08 µM); 0.806 in the test with Vismodegib + Bortezomib (first compound 0.253 µM); 0.756 with Vismodegib + Bortezomib (first compound 0.8 µM); 0.837 in the test with Vismodegib + Bortezomib (first compound 2.53 µM); 0.829 with Vismodegib + Bortezomib (first compound 8 µM); 0.839 with VE-821 + Vorinostat (first compound 0.08 µM). Further, the relative viability came out at 0.836 with VE-821 + Vorinostat (first compound 0.253 µM); 0.815 with VE-821 + Vorinostat (first compound 0.8 µM); 0.783 in the test with VE-821 + Vorinostat (first compound 2.53 µM); 0.627 with VE-821 + Vorinostat (first compound 8 µM); 0.263 with Vismodegib + Alpelisib (first compound 0.08 µM); 0.701 with Vismodegib + Alpelisib (first compound 0.253 µM). The relative viability in the test with Vismodegib + Alpelisib (first compound 0.8 µM) stood at 0.71; with Vismodegib + Alpelisib (first compound 2.53 µM), 0.595; in the test with Vismodegib + Alpelisib (first compound 8 µM), 0.84.

With NCI-H1299, the relative viability was found to be 1.01 in the test with Vismodegib + Bortezomib (first compound 0.08 µM); 0.985 with Vismodegib + Bortezomib (first compound 0.253 µM); 1.04 with Vismodegib + Bortezomib (first compound 0.8 µM); 1.01 with Vismodegib + Bortezomib (first compound 2.53 µM); 0.973 with Vismodegib + Bortezomib (first compound 8 µM); 0.984 in the test with Vismodegib + Alpelisib (first compound 0.08 µM). Further, the relative viability with Vismodegib + Alpelisib (first compound 0.253 µM) was 1.04; with Vismodegib + Alpelisib (first compound 0.8 µM), 1.06; in the test with Vismodegib + Alpelisib (first compound 2.53 µM) it was 0.973; with Vismodegib + Alpelisib (first compound 8 µM), 1.04.

Consider NCI-H1395, for which the relative viability is 0.69 in the test with VE-821 + Vorinostat (first compound 0.08 µM); 0.647 with VE-821 + Vorinostat (first compound 0.253 µM); 0.705 in the test with VE-821 + Vorinostat (first compound 0.8 µM); 0.638 in the test with VE-821 + Vorinostat (first compound 2.53 µM); 0.43 with VE-821 + Vorinostat (first compound 8 µM); 0.379 with VE-821 + AZD7762 (first compound 0.08 µM). Moreover, the relative viability with VE-821 + AZD7762 (first compound 0.253 µM) was 0.391; in the test with VE-821 + AZD7762 (first compound 0.8 µM), 0.369; with VE-821 + AZD7762 (first compound 2.53 µM), 0.366; in the test with VE-821 + AZD7762 (first compound 8 µM) it was 0.362; with Vismodegib + Alpelisib (first compound 0.08 µM) it was 0.997; in the test with Vismodegib + Alpelisib (first compound 0.253 µM), 0.966. For the same cell line, the relative viability was found to be 0.961 in the test with Vismodegib + Alpelisib (first compound 0.8 µM), 0.944 with Vismodegib + Alpelisib (first compound 2.53 µM) and 1.14 with Vismodegib + Alpelisib (first compound 8 µM).

Turning to NCI-H1563, the relative viability in the test with Vismodegib + Bortezomib (first compound 0.08 µM) was found to be 0.845; with Vismodegib + Bortezomib (first compound 0.253 µM) it was 0.881; in the test with Vismodegib + Bortezomib (first compound 0.8 µM), 0.904; in the test with Vismodegib + Bortezomib (first compound 2.53 µM) it was 0.922; with Vismodegib + Bortezomib (first compound 8 µM), 0.906; with Vismodegib + Alpelisib (first compound 0.08 µM) it was 0.896. Moreover, the relative viability in the test with Vismodegib + Alpelisib (first compound 0.253 µM) is 0.88; with Vismodegib + Alpelisib (first compound 0.8 µM) it was 1.01; with Vismodegib + Alpelisib (first compound 2.53 µM), 0.889; with Vismodegib + Alpelisib (first compound 8 µM), 1.02.

As for NCI-H1648, the relative viability with VE-821 + Vorinostat (first compound 0.08 µM) worked out at 0.483; with VE-821 + Vorinostat (first compound 0.8 µM), 0.485; with VE-821 + Vorinostat (first compound 2.53 µM) it was 0.532; with VE-821 + Vorinostat (first compound 8 µM) it was 0.641; with VE-821 + AZD7762 (first compound 0.08 µM) it was 0.582; with VE-821 + AZD7762 (first compound 0.8 µM), 0.49. Further, the relative viability was determined as 0.473 with VE-821 + AZD7762 (first compound 2.53 µM) and 0.319 with VE-821 + AZD7762 (first compound 8 µM).

As to NCI-H1650, the relative viability came to 0.196 in the test with Vismodegib + Bortezomib (first compound 0.08 µM); 0.314 in the test with Vismodegib + Bortezomib (first compound 0.253 µM); 0.198 with Vismodegib + Bortezomib (first compound 0.8 µM); 0.205 in the test with Vismodegib + Bortezomib (first compound 2.53 µM); 0.191 with Vismodegib + Bortezomib (first compound 8 µM); 0.498 with VE-821 + Vorinostat (first compound 0.08 µM). The relative viability with VE-821 + Vorinostat (first compound 0.253 µM) came out at 0.737; with VE-821 + Vorinostat (first compound 0.8 µM), 0.524; with VE-821 + Vorinostat (first compound 2.53 µM) it was 0.578; with VE-821 + Vorinostat (first compound 8 µM) it was 0.437.

NCI-H1703: the relative viability in the test with Vismodegib + Bortezomib (first compound 0.08 µM) stood at 0.368; with Vismodegib + Bortezomib (first compound 0.253 µM) it was 0.257; with Vismodegib + Bortezomib (first compound 0.8 µM), 0.372; with Vismodegib + Bortezomib (first compound 2.53 µM), 0.342; with Vismodegib + Bortezomib (first compound 8 µM), 0.401; in the test with VE-821 + AZD7762 (first compound 0.08 µM), 0.0991. Besides, the relative viability with VE-821 + AZD7762 (first compound 0.253 µM) was determined as 0.11; in the test with VE-821 + AZD7762 (first compound 0.8 µM), 0.14; in the test with VE-821 + AZD7762 (first compound 2.53 µM), 0.119; with VE-821 + AZD7762 (first compound 8 µM) it was 0.1; with Vismodegib + Alpelisib (first compound 0.08 µM), 0.315; in the test with Vismodegib + Alpelisib (first compound 0.253 µM), 0.311. Further, the figures for the relative viability with Vismodegib + Alpelisib (first compound 0.8 µM), in the test with Vismodegib + Alpelisib (first compound 2.53 µM) and with Vismodegib + Alpelisib (first compound 8 µM) were 0.407, 0.306 and 0.422, respectively.

In the case of NCI-H1792, the relative viability in the test with Vismodegib + Bortezomib (first compound 0.08 µM) amounted to 0.953; in the test with Vismodegib + Bortezomib (first compound 0.253 µM) it was 0.974; with Vismodegib + Bortezomib (first compound 0.8 µM), 0.929; with Vismodegib + Bortezomib (first compound 2.53 µM), 0.946; with Vismodegib + Bortezomib (first compound 8 µM), 0.93; with VE-821 + AZD7762 (first compound 0.08 µM), 0.665. In addition, the relative viability stood at 0.432 in the test with VE-821 + AZD7762 (first compound 0.253 µM); 0.328 in the test with VE-821 + AZD7762 (first compound 0.8 µM); 0.196 in the test with VE-821 + AZD7762 (first compound 2.53 µM); 0.135 with VE-821 + AZD7762 (first compound 8 µM); 0.608 in the test with Vismodegib + Alpelisib (first compound 0.08 µM); 0.687 with Vismodegib + Alpelisib (first compound 0.253 µM). For the same cell line, the results for the relative viability with Vismodegib + Alpelisib (first compound 0.8 µM), in the test with Vismodegib + Alpelisib (first compound 2.53 µM) and with Vismodegib + Alpelisib (first compound 8 µM) were 0.615, 0.667 and 0.647, respectively.

As for NCI-H1793, the relative viability with VE-821 + Vorinostat (first compound 0.08 µM) is 0.996; with VE-821 + Vorinostat (first compound 0.253 µM), 0.616; with VE-821 + Vorinostat (first compound 2.53 µM), 0.837; in the test with VE-821 + Vorinostat (first compound 8 µM), 0.615; with VE-821 + AZD7762 (first compound 0.08 µM), 0.381; in the test with VE-821 + AZD7762 (first compound 0.253 µM) it was 0.267. Besides, the relative viability with VE-821 + AZD7762 (first compound 2.53 µM) came to 0.252; with VE-821 + AZD7762 (first compound 8 µM), 0.214; with Vismodegib + Alpelisib (first compound 0.253 µM) it was 0.642; with Vismodegib + Alpelisib (first compound 0.8 µM) it was 0.77; with Vismodegib + Alpelisib (first compound 2.53 µM) it was 0.809; with Vismodegib + Alpelisib (first compound 8 µM) it was 0.671.
